Measurements: ChEMBL document CHEMBL4507324 (2021)

Tests used:
Settings in all cases: Compound concentration 100.0 nM
[1] = test system: Tyrosine-protein kinase ABL1 (Homo sapiens), P00519 [H396P]
[2] = test system: Tyrosine-protein kinase ABL1 (Homo sapiens), P00519 [Q252H]
[3] = target: Activin receptor type-1-like (Homo sapiens) (UniProt P37023)
[4] = target: Atypical kinase COQ8B, mitochondrial (Homo sapiens) (UniProt Q96D53)
[5] = target: 5'-AMP-activated protein kinase catalytic subunit alpha-1 (Homo sapiens) (UniProt Q13131)
[6] = target: Calcium/calmodulin-dependent protein kinase type II subunit beta (Homo sapiens) (UniProt Q13554)
[7] = target: Cyclin-dependent kinase 3 (Homo sapiens) (UniProt Q00526)
[8] = target: Cyclin-dependent kinase 5 (Homo sapiens) (UniProt Q00535)
[9] = target: Macrophage colony-stimulating factor 1 receptor (Homo sapiens) (UniProt P07333)
[10] = target: Death-associated protein kinase 3 (Homo sapiens) (UniProt O43293)
[11] = target: Serine/threonine-protein kinase MRCK gamma (Homo sapiens) (UniProt Q6DT37)
[12] = test system: Epidermal growth factor receptor (Homo sapiens), P00533 [G719C]
[13] = test system: Epidermal growth factor receptor (Homo sapiens), P00533 [UNDEFINED MUTATION]
[14] = target: Eukaryotic translation initiation factor 2-alpha kinase 1 (Homo sapiens) (UniProt Q9BQI3)
[15] = target: Ephrin type-A receptor 4 (Homo sapiens) (UniProt P54764)
[16] = target: Ephrin type-A receptor 8 (Homo sapiens) (UniProt P29322)
[17] = target: Receptor tyrosine-protein kinase erbB-4 (Homo sapiens) (UniProt Q15303)
[18] = target: Tyrosine-protein kinase Fes/Fps (Homo sapiens) (UniProt P07332)
[19] = test system: eIF-2-alpha kinase GCN2 (Homo sapiens), Q9P2K8 [S808G]
[20] = target: Beta-adrenergic receptor kinase 1 (Homo sapiens) (UniProt P25098)
[21] = target: G protein-coupled receptor kinase 3 (Homo sapiens) (UniProt P35626)
[22] = target: Insulin receptor (Homo sapiens) (UniProt P06213)
[23] = target: Interleukin-1 receptor-associated kinase 1 (Homo sapiens) (UniProt P51617)
[24] = target: Serine/threonine-protein kinase STK11 (Homo sapiens) (UniProt Q15831)
[25] = target: Mitogen-activated protein kinase kinase kinase kinase 4 (Homo sapiens) (UniProt O95819)
[26] = target: MAP/microtubule affinity-regulating kinase 4 (Homo sapiens) (UniProt Q96L34)
[27] = target: Dual specificity mitogen-activated protein kinase kinase 7 (Homo sapiens) (UniProt O14733)
[28] = target: Myosin light chain kinase (Homo sapiens) (UniProt Q32MK0)
[29] = target: Serine/threonine-protein kinase Nek11 (Homo sapiens) (UniProt Q8NG66)
[30] = target: Serine/threonine-protein kinase Nek4 (Homo sapiens) (UniProt P51957)
[31] = target: Serine/threonine-protein kinase NLK (Homo sapiens) (UniProt Q9UBE8)
[32] = target: Phosphatidylinositol 5-phosphate 4-kinase type-2 gamma (Homo sapiens) (UniProt Q8TBX8)
[33] = target: cAMP-dependent protein kinase catalytic subunit alpha (Homo sapiens) (UniProt P17612)
[34] = test system: Proto-oncogene tyrosine-protein kinase receptor Ret (Homo sapiens), P07949 [M918T]
[35] = test system: Proto-oncogene tyrosine-protein kinase receptor Ret (Homo sapiens), P07949 [V804L]
[36] = target: Receptor-interacting serine/threonine-protein kinase 4 (Homo sapiens) (UniProt P57078)
[37] = target: Ribosomal protein S6 kinase alpha-2 (Homo sapiens) (UniProt Q15349)
[38] = target: Serine/threonine-protein kinase Sgk1 (Homo sapiens) (UniProt O00141)
[39] = target: Serine/threonine-protein kinase Sgk2 (Homo sapiens) (UniProt Q9HBY8)
[40] = target: SRSF protein kinase 3 (Homo sapiens) (UniProt Q9UPE1)
[41] = target: TGF-beta receptor type-2 (Homo sapiens) (UniProt P37173)
[42] = target: TRAF2 and NCK-interacting protein kinase (Homo sapiens) (UniProt Q9UKE5)
[43] = target: Non-receptor tyrosine-protein kinase TYK2 (Homo sapiens) (UniProt P29597)
[44] = target: Tyrosine-protein kinase receptor TYRO3 (Homo sapiens) (UniProt Q06418)
[45] = target: Vascular endothelial growth factor receptor 2 (Homo sapiens) (UniProt P35968)

Insulin receptor (Homo sapiens), sequence (P06213 28-758 limits assumed): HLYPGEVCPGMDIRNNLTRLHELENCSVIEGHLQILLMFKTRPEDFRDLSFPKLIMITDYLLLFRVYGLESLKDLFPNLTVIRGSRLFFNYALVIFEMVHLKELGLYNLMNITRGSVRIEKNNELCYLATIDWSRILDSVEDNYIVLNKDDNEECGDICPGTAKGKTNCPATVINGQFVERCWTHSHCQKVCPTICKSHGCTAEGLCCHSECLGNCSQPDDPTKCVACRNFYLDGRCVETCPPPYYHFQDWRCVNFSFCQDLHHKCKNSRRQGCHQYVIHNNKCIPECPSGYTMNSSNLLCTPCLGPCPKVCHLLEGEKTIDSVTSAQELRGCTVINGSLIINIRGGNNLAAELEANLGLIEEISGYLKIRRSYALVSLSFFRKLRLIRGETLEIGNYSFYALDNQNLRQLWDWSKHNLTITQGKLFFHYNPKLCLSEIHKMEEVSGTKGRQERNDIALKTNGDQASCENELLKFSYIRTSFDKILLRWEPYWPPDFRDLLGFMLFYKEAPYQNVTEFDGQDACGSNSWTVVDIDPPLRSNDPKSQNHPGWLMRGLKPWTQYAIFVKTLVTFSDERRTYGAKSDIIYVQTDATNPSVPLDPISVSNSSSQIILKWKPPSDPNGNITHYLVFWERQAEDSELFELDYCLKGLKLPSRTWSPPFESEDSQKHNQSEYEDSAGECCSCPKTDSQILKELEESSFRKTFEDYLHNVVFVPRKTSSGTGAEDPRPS
Insulin receptor (Homo sapiens), sequence (P06213 763-1382 limits assumed): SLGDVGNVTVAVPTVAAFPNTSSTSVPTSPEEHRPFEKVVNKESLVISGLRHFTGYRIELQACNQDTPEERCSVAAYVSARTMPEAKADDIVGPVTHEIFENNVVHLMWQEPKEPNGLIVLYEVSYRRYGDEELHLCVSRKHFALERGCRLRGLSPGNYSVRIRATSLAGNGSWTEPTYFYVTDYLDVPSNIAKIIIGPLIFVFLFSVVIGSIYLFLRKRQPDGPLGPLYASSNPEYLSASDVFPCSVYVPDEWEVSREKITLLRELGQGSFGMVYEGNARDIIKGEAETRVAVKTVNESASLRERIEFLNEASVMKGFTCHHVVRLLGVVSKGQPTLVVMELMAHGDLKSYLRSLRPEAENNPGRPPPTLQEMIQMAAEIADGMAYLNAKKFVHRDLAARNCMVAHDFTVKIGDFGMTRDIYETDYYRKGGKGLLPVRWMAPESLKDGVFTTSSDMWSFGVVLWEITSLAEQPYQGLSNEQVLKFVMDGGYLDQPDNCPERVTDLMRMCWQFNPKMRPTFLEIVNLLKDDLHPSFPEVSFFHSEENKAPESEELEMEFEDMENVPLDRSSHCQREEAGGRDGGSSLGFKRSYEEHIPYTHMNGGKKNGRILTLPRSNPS
5'-AMP-activated protein kinase catalytic subunit alpha-1 (Homo sapiens), sequence (Q13131 whole entry, looked up): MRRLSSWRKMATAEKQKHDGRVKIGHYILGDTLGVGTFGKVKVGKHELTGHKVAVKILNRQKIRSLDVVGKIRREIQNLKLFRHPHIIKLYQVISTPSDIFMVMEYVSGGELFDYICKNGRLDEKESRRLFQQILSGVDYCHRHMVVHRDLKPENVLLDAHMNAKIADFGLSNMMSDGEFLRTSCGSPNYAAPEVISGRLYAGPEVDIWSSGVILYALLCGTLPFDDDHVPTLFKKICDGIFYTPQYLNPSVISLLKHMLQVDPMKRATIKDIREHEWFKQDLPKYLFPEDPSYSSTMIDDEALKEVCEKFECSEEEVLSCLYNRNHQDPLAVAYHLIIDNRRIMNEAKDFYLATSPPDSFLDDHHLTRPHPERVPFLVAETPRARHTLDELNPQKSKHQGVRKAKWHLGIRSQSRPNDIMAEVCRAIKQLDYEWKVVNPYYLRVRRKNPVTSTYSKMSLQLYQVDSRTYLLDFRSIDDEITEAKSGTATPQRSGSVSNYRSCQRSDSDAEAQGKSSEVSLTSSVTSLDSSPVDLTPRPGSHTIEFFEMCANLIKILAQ
Mitogen-activated protein kinase kinase kinase kinase 4 (Homo sapiens), sequence (O95819 2-1239 limits assumed): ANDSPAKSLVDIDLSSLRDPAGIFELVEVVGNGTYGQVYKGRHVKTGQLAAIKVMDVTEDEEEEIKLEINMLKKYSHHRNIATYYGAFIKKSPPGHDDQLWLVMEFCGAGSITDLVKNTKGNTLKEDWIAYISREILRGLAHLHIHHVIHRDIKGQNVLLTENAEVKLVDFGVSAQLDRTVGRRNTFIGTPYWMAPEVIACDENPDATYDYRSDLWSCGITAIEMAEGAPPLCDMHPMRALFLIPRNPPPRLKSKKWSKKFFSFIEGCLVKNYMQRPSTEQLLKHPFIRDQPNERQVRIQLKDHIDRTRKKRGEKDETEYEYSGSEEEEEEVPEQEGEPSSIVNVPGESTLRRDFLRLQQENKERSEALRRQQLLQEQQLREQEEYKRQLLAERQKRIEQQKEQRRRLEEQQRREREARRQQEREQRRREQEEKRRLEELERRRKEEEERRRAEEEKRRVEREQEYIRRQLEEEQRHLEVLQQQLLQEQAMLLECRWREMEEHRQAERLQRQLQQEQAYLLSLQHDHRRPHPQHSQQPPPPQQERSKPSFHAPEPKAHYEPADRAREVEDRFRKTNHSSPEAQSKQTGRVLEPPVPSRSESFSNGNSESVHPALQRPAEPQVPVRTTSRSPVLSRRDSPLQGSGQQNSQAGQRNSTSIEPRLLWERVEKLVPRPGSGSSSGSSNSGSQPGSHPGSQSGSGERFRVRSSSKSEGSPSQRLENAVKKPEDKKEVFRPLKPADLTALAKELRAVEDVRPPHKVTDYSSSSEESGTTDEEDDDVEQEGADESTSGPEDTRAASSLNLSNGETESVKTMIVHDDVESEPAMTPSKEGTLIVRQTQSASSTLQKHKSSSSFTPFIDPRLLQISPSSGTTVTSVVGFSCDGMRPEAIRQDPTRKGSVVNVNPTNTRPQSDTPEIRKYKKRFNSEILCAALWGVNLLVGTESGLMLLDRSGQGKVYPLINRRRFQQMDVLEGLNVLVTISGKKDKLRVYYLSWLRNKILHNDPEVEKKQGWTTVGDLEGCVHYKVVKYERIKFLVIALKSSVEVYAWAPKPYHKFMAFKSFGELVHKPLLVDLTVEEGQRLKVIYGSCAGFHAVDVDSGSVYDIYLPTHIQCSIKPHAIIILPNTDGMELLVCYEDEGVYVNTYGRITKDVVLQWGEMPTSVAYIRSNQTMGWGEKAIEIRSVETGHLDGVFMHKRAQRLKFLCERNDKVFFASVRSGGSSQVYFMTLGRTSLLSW
Interleukin-1 receptor-associated kinase 1 (Homo sapiens), sequence (P51617 whole entry, looked up): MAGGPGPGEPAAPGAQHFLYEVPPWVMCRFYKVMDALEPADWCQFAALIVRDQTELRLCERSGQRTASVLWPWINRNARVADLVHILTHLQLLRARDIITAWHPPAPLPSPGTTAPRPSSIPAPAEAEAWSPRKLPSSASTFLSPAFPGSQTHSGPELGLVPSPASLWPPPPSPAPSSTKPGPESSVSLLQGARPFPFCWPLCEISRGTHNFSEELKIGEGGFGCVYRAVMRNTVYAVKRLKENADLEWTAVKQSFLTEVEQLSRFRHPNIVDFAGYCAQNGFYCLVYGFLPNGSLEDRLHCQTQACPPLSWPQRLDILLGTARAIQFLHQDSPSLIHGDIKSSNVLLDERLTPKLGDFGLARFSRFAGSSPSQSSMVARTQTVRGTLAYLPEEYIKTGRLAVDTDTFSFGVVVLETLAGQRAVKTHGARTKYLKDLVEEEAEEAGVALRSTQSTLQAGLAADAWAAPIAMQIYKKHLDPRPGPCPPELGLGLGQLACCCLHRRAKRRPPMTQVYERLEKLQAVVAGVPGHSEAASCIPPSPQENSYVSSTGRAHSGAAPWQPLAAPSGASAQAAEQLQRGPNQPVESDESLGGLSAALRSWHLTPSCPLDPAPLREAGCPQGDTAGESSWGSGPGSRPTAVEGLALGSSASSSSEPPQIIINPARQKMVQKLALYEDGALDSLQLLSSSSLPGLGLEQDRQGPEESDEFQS
Beta-adrenergic receptor kinase 1 (Homo sapiens), sequence (P25098 whole entry): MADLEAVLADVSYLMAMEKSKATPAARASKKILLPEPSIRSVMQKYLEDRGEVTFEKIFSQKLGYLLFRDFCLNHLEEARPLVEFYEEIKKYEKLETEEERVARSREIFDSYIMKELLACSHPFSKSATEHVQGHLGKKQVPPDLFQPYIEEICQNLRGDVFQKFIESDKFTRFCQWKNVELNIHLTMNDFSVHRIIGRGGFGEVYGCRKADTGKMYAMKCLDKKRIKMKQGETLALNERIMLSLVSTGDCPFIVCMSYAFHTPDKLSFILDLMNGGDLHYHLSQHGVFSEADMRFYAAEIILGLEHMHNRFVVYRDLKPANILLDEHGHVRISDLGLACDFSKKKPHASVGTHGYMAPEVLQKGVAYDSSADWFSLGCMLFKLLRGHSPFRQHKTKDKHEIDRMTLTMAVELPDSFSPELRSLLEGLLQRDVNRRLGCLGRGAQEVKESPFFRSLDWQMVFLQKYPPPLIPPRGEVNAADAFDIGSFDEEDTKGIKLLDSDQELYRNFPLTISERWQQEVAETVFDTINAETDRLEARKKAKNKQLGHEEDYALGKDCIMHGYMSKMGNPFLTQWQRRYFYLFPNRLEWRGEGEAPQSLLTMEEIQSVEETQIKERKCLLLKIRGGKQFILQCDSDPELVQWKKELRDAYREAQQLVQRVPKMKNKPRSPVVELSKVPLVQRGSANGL
Serine/threonine-protein kinase STK11 (Homo sapiens), sequence (Q15831 whole entry): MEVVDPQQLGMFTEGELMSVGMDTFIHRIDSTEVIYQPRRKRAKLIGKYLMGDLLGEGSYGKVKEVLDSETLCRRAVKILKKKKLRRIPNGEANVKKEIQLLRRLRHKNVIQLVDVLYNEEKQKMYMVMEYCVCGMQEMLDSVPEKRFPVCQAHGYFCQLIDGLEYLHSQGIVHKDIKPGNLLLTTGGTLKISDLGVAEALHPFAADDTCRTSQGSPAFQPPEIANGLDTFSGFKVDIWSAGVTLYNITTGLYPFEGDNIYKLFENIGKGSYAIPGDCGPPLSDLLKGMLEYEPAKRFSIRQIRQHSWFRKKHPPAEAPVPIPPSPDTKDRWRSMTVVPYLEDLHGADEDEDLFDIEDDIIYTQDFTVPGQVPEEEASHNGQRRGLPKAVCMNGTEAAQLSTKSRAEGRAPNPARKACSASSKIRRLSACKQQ

SMILES: CS(=O)(=O)N1CCCC(NC(=O)[C@H](CCC2CCCCC2)NC(=O)c2ccc(CNc3ncnc4c3nnn4-c3ccccc3)cc2)C1 (stereo not given in full) [SR-301]
- residual activity [1]: 99%
- residual activity [2]: 89%
- residual activity [3]: 97%
- residual activity [4]: 100%
- residual activity [5]: 100%
- residual activity [6]: 100%
- residual activity [7]: 82%
- residual activity [8]: 94%
- residual activity [9]: 100%
- residual activity [10]: 88%
- residual activity [11]: 99%
- residual activity [12]: 86%
- residual activity [13]: 66%
- residual activity [14]: 81%
- residual activity [15]: 76%
- residual activity [16]: 100%
- residual activity [17]: 61%
- residual activity [18]: 87%
- residual activity [19]: 100%
- residual activity [20]: 72%
- residual activity [21]: 100%
- residual activity [22]: 100%
- residual activity [23]: 100%
- residual activity [24]: 100%
- residual activity [25]: 66%
- residual activity [26]: 71%
- residual activity [27]: 100%
- residual activity [28]: 100%
- residual activity [29]: 100%
- residual activity [30]: 100%
- residual activity [31]: 100%
- residual activity [32]: 100%
- residual activity [33]: 100%
- residual activity [34]: 93%
- residual activity [35]: 83%
- residual activity [36]: 100%
- residual activity [37]: 100%
- residual activity [38]: 100%
- residual activity [39]: 100%
- residual activity [40]: 100%
- residual activity [41]: 93%
- residual activity [42]: 45%
- residual activity [43]: 99%
- residual activity [44]: 90%
- residual activity [45]: 85%

SMILES: CS(=O)(=O)N1CCCC(NC(=O)[C@H](CCC2CCCCC2)NC(=O)c2ccc(CNC(=O)c3cnc4ccccn34)cc2)C1 (stereo not given in full) [SR-302]
- residual activity [1]: 35%
- residual activity [2]: 37%
- residual activity [3]: 96%
- residual activity [4]: 100%
- residual activity [5]: 100%
- residual activity [6]: 100%
- residual activity [7]: 100%
- residual activity [8]: 100%
- residual activity [9]: 65%
- residual activity [10]: 90%
- residual activity [11]: 98%
- residual activity [12]: 100%
- residual activity [13]: 99%
- residual activity [14]: 91%
- residual activity [15]: 98%
- residual activity [16]: 89%
- residual activity [17]: 95%
- residual activity [18]: 100%
- residual activity [19]: 100%
- residual activity [20]: 88%
- residual activity [21]: 100%
- residual activity [22]: 100%
- residual activity [23]: 100%
- residual activity [24]: 51%
- residual activity [25]: 100%
- residual activity [26]: 100%
- residual activity [27]: 95%
- residual activity [28]: 88%
- residual activity [29]: 94%
- residual activity [30]: 100%
- residual activity [31]: 100%
- residual activity [32]: 100%
- residual activity [33]: 100%
- residual activity [34]: 93%
- residual activity [35]: 98%
- residual activity [36]: 92%
- residual activity [37]: 94%
- residual activity [38]: 100%
- residual activity [39]: 100%
- residual activity [40]: 100%
- residual activity [41]: 91%
- residual activity [42]: 100%
- residual activity [43]: 84%
- residual activity [44]: 83%
- residual activity [45]: 96%
